Laboratory results: article PMC12888861, “Antibacterial activity of enmetazobactam against Acinetobacter spp.: a molecular dissection of mechanism of action and resistance determinants” (Antimicrobial Agents and Chemotherapy, 2025)

Assays:
[1] = tested on: A. baumannii ATCC 19606 cells; assay: Cell morphology assay, bright-field microscopy; type: cell-based, Acinetobacter baumannii
Protocol: In order to confirm the involvement of PBPs as targets of enmetazobactam, cell morphology assays involving exposure to enmetazobactam and sulbactam were performed following the methodology described in Supplementary materials and methods.
To confirm the involvement of PBPs as targets of enmetazobactam, the cellular morphology of A. baumannii ATCC 19606 reference strain was analyzed after exposure to the compound at different concentrations. Bright-field microscopy was used to monitor the cell morphology. […] For microscopic visualization, aliquots of each sample were obtained, stained with crystal violet solution and observed using an Olympus BX61 microscope (Olympus).
Changes in cell morphology were determined on the basis of alterations in septal integrity, abnormal elongation, spheroplast formation and filamentation, patterns previously associated with the selective inhibition of PBP1, PBP2 and PBP3 in Gram-negative bacilli. Specifically, PBP1 inhibition has been linked to cell lysis, PBP2 inhibition has been linked to spherification, and PBP3 inhibition to defective cell division and filament formation (1, 2). The results were qualitatively compared across different treatments to infer the potential selectivity of enmetazobactam for specific PBPs.

[2] = tested on: carbapenem-susceptible A. baumannii isolates (n = 54); assay: MIC, broth microdilution (EUCAST), carbapenem-susceptible A. baumannii isolates; type: cell-based, Acinetobacter baumannii
From the text: The bacterial strains used in this study comprised 208 clinical isolates from the Spanish National Acinetobacter spp. 2020 Multicenter Collection, which was previously characterized in detail by our research group, including whole-genome sequencing, phylogenetics studies, clonal dynamics, and resistance mechanisms ([2], [29]). Additionally, a collection of A. baumannii ATCC 17978 transformants coding the blaOXA-23, blaOXA-24/40, blaOXA-51, blaOXA-58, blaOXA-143, and blaOXA-201 genes, previously constructed and described by our group ([30]), was used to determine the activity of enmetazobactam against strains carrying the main CHDLs of A. baumannii.
The antimicrobial susceptibility of the 208 Acinetobacter spp. isolates was assessed using the broth microdilution method, as described in the European Committee on Antimicrobial Susceptibility Testing (EUCAST) v.15 guidelines (http://www.eucast.org/clinical_breakpoints). […] MICs for enmetazobactam alone were assessed as well. […] Subsequently, MIC testing was also conducted with a collection of A. baumannii ATCC 17978 transformants expressing clinically relevant OXA-like carbapenemase genes.
The A. baumannii ATCC 19606 strain was used as the reference strain in all susceptibility experiments, in duplicate assays. Antibiotics were purchased from Sigma-Aldrich, except enmetazobactam and durlobactam, which were obtained from Advanz Pharma and MedChemExpress, respectively.

[3] = Acinetobacter baumannii, carbapenem-susceptible A. baumannii isolates (n = 54), ETZ fixed 8 mg/L in combinations

C[n+]1ccn(C[C@@]2(C)[C@H](C(=O)[O-])N3C(=O)C[C@H]3S2(=O)=O)n1 [enmetazobactam]
elongated filaments: cell morphology ([1]; A. baumannii ATCC 19606, overnight exposure at 1× MIC)
1 µg/mL: MIC ([2]; Acinetobacter baumannii, isolate Ab209, in combinations ETZ fixed at 8 mg/L) | MIC ([2]; Acinetobacter baumannii, isolate Ab220, in combinations ETZ fixed at 8 mg/L)
2 µg/mL: MIC ([2]; Acinetobacter baumannii, MBC set, isolate Ab1, A. baumannii ST 164, ADC-6, OXA-91, non-CHDLs-producing) | MIC ([2]; Acinetobacter baumannii, MBC set, isolate Ab11, A. baumannii ST 239, ADC-2, OXA-51, non-CHDLs-producing) | MIC ([2]; Acinetobacter baumannii, isolate Ab57, ST 1470, ADC-58, OXA-106, in combinations ETZ fixed at 8 mg/L) | MIC ([2]; Acinetobacter baumannii, isolate Ab95, ST 582, ADC-5, OXA-317, in combinations ETZ fixed at 8 mg/L) | MIC ([2]; Acinetobacter baumannii, isolate Ab96, ST 582, ADC-5, OXA-317, in combinations ETZ fixed at 8 mg/L) | MIC ([2]; Acinetobacter baumannii, isolate Ab100, ST 145, ADC-58, OXA-343, in combinations ETZ fixed at 8 mg/L) | MIC ([2]; Acinetobacter baumannii, isolate Ab112, ST 193, ADC-like, OXA-120, in combinations ETZ fixed at 8 mg/L) | MIC ([2]; Acinetobacter baumannii, isolate Ab124, ST 2176, ADC-2, OXA-64, in combinations ETZ fixed at 8 mg/L) | MIC ([2]; Acinetobacter baumannii, isolate Ab128, ST 2176, ADC-2, OXA-64, in combinations ETZ fixed at 8 mg/L) | MIC ([2]; Acinetobacter baumannii, isolate Ab130, ST 32, ADC-79, OXA-100, in combinations ETZ fixed at 8 mg/L) | MIC ([2]; Acinetobacter baumannii, isolate Ab131, ST 687, ADC-like, OXA-208, in combinations ETZ fixed at 8 mg/L) | MIC ([2]; Acinetobacter baumannii, isolate Ab132, ST 1112, ADC-79, OXA-89, in combinations ETZ fixed at 8 mg/L) | MIC ([2]; Acinetobacter baumannii, isolate Ab158, ST 2034, ADC-2, OXA-217, in combinations ETZ fixed at 8 mg/L) | MIC ([2]; Acinetobacter baumannii, isolate Ab163, ST 132, ADC-2, OXA-120, in combinations ETZ fixed at 8 mg/L) | MIC ([2]; Acinetobacter baumannii, isolate Ab167, ST 1623, ADC-like, OXA-345, in combinations ETZ fixed at 8 mg/L) | MIC ([2]; Acinetobacter baumannii, isolate Ab168, ST 1470, ADC-75, OXA-402, in combinations ETZ fixed at 8 mg/L) | MIC ([2]; Acinetobacter baumannii, isolate Ab172, ST 2185, ADC-5, OXA-217, in combinations ETZ fixed at 8 mg/L) | MIC ([2]; Acinetobacter baumannii, isolate Ab187, ST 105, ADC-2, OXA-430, in combinations ETZ fixed at 8 mg/L) | MIC ([2]; Acinetobacter baumannii, isolate Ab189, ST 1405, ADC-3, OXA-120, in combinations ETZ fixed at 8 mg/L) | MIC ([2]; Acinetobacter baumannii, isolate Ab190, ST 2186, ADC-6, OXA-413, in combinations ETZ fixed at 8 mg/L) | MIC ([2]; Acinetobacter baumannii, isolate Ab193, ST 164, ADC-6, OXA-91, in combinations ETZ fixed at 8 mg/L) | MIC ([2]; Acinetobacter baumannii, isolate Ab195, ST 1, ADC-11, OXA-69, in combinations ETZ fixed at 8 mg/L) | MIC ([2]; Acinetobacter baumannii, isolate Ab200, ST 1336, ADC-2, OXA-51, in combinations ETZ fixed at 8 mg/L) | MIC ([2]; Acinetobacter baumannii, isolate Ab202, ST 1, ADC-11, OXA-69, in combinations ETZ fixed at 8 mg/L) | MIC ([2]; Acinetobacter baumannii, isolate Ab203, ST 221, ADC-6, OXA-88, in combinations ETZ fixed at 8 mg/L) | MIC ([2]; Acinetobacter baumannii, isolate Ab206, ST 2187, ADC-58, OXA-69, in combinations ETZ fixed at 8 mg/L) | MIC ([2]; Acinetobacter baumannii, isolate Ab213, in combinations ETZ fixed at 8 mg/L) | MIC ([2]; Acinetobacter baumannii, isolate Ab218, in combinations ETZ fixed at 8 mg/L) | MIC50 [2, 3]
96.3: MIC distribution 4 ([2]; cumulative share of carbapenem-susceptible A. baumannii isolates (n = 54) at MIC 4 mg/L, ETZ fixed 8 mg/L in combinations)
0: MIC distribution 0.12 [2] | MIC distribution 0.25 ([2]; cumulative share of carbapenem-susceptible A. baumannii isolates (n = 54) at MIC 0.25 mg/L, ETZ fixed 8 mg/L in combinations) | MIC distribution 0.5 ([2]; cumulative share of carbapenem-susceptible A. baumannii isolates (n = 54) at MIC 0.5 mg/L, ETZ fixed 8 mg/L in combinations) | MIC distribution ≤0.06 ([2]; cumulative share of carbapenem-susceptible A. baumannii isolates (n = 54) at MIC ≤0.06 mg/L, ETZ fixed 8 mg/L in combinations)
100: MIC distribution 8 ([2]; cumulative share of carbapenem-susceptible A. baumannii isolates (n = 54) at MIC 8 mg/L, ETZ fixed 8 mg/L in combinations) | MIC distribution 16 ([2]; cumulative share of carbapenem-susceptible A. baumannii isolates (n = 54) at MIC 16 mg/L, ETZ fixed 8 mg/L in combinations) | MIC distribution ≥32 ([2]; cumulative share of carbapenem-susceptible A. baumannii isolates (n = 54) at MIC ≥32 mg/L, ETZ fixed 8 mg/L in combinations)
the filaments shortened in length: cell morphology ([1]; A. baumannii ATCC 19606, overnight exposure at 2× MIC)
4 µg/mL: MIC ([2]; Acinetobacter baumannii, MBC set, isolate Ab34, A. baumannii ST 2182, ADC-2, OXA-130, non-CHDLs-producing) | MIC ([2]; Acinetobacter baumannii, isolate Ab1, ST 164, ADC-6, OXA-91, in combinations ETZ fixed at 8 mg/L) | MIC ([2]; Acinetobacter baumannii, isolate Ab11, ST 239, ADC-2, OXA-51, in combinations ETZ fixed at 8 mg/L) | MIC ([2]; Acinetobacter baumannii, isolate Ab34, ST 2182, ADC-2, OXA-130, in combinations ETZ fixed at 8 mg/L) | MIC ([2]; Acinetobacter baumannii, isolate Ab38, ST 866, ADC-2, OXA-385, in combinations ETZ fixed at 8 mg/L) | MIC ([2]; Acinetobacter baumannii, isolate Ab40, ST 2176, ADC-2, OXA-64, in combinations ETZ fixed at 8 mg/L) | MIC ([2]; Acinetobacter baumannii, isolate Ab50, ST 2176, ADC-2, OXA-64, in combinations ETZ fixed at 8 mg/L) | MIC ([2]; Acinetobacter baumannii, isolate Ab58, ST 6, ADC-2, OXA-94, in combinations ETZ fixed at 8 mg/L) | MIC ([2]; Acinetobacter baumannii, isolate Ab61, ST 1639, ADC-7, OXA-64, in combinations ETZ fixed at 8 mg/L) | MIC ([2]; Acinetobacter baumannii, isolate Ab62, ST 265, ADC-2, OXA-91, in combinations ETZ fixed at 8 mg/L) | MIC ([2]; Acinetobacter baumannii, isolate Ab67, ST 1, ADC-11, OXA-69, in combinations ETZ fixed at 8 mg/L) | MIC ([2]; Acinetobacter baumannii, isolate Ab79, ST 106, ADC-11, OXA-78, in combinations ETZ fixed at 8 mg/L) | MIC ([2]; Acinetobacter baumannii, isolate Ab80, ST 2182, ADC-6, OXA-208, in combinations ETZ fixed at 8 mg/L) | MIC ([2]; Acinetobacter baumannii, isolate Ab81, ST 25, ADC-79, OXA-64, in combinations ETZ fixed at 8 mg/L) | MIC ([2]; Acinetobacter baumannii, isolate Ab93, ST 25, ADC-79, OXA-64, in combinations ETZ fixed at 8 mg/L) | MIC ([2]; Acinetobacter baumannii, isolate Ab110, ST 1623, ADC-3, OXA-70, in combinations ETZ fixed at 8 mg/L) | MIC ([2]; Acinetobacter baumannii, isolate Ab127, ST 2176, ADC-2, OXA-64, in combinations ETZ fixed at 8 mg/L) | MIC ([2]; Acinetobacter baumannii, isolate Ab136, ST 2183, ADC-like, OXA-66, in combinations ETZ fixed at 8 mg/L) | MIC ([2]; Acinetobacter baumannii, isolate Ab139, ST 54, ADC-like, OXA-365, in combinations ETZ fixed at 8 mg/L) | MIC ([2]; Acinetobacter baumannii, isolate Ab143, ST 1328, ADC-76, OXA-408, in combinations ETZ fixed at 8 mg/L) | MIC ([2]; Acinetobacter baumannii, isolate Ab150, ST 2184, ADC-like, OXA-64, in combinations ETZ fixed at 8 mg/L) | MIC ([2]; Acinetobacter baumannii, isolate Ab152, ST 132, ADC-2, OXA-120, in combinations ETZ fixed at 8 mg/L) | MIC ([2]; Acinetobacter baumannii, isolate Ab170, ST 2110, ADC-4, OXA-338, in combinations ETZ fixed at 8 mg/L) | MIC ([2]; Acinetobacter baumannii, isolate Ab185, ST 2, ADC-26, OXA-66, in combinations ETZ fixed at 8 mg/L) | MIC ([2]; Acinetobacter baumannii, isolate Ab188, ST 203, ADC-6, OXA-217, PDC-1, in combinations ETZ fixed at 8 mg/L) | MIC90 [2, 3]
51.9: MIC distribution 2 ([2]; cumulative share of carbapenem-susceptible A. baumannii isolates (n = 54) at MIC 2 mg/L, ETZ fixed 8 mg/L in combinations)
3.7: MIC distribution 1 ([2]; cumulative share of carbapenem-susceptible A. baumannii isolates (n = 54) at MIC 1 mg/L, ETZ fixed 8 mg/L in combinations)
8 µg/mL: MIC ([2]; Acinetobacter baumannii, isolate Ab142, ST 1, ADC-like, OXA-69, in combinations ETZ fixed at 8 mg/L) | MIC ([2]; Acinetobacter baumannii, isolate Ab149, ST 1112, ADC-6, OXA-407, in combinations ETZ fixed at 8 mg/L)
